Results reported in patent publication US6492373B2, “6-fluoro-1,4-dihydro-7-[4-(2-hydroxyiminoethyl)-1-piperazinyl]-4-oxoquinoline-3-carboxylic acid derivatives, their preparation and pharmaceutical compositions” (Pharmaceutical Industry Technology and Development Center, priority 2000, dated 2002).
≈ marks a conversion by molar mass, not a printed value.

Experiments:
Mycobacterium ranae = assay: In vitro antibacterial activity, MIC by broth dilution; assay type: cell-based; conditions: for MIC: Mycobacterium, 20-72 hours at 37° C., Brain Heart Infusion broth
[1] = test system: Staphylococcus pneumoniae, Erythromycin and Ampicillin resistant, clinical isolates; assay: as above; assay type: cell-based; conditions: for MIC: Staphylococcus, 20-72 hours at 37° C., Tryptic Soy Broth with 7% calf serum
[2] = test system: Enterococcus faecalis, Vancomycin resistant, clinical isolates; assay: as above; assay type: cell-based; conditions: for MIC: Enterococcus faecalis, 20-72 hours at 37° C., Tryptic Soy Broth with 7% calf serum
Proteus vulgaris = assay: as above; assay type: cell-based; conditions: for MIC: Proteus vulgaris, 20-72 hours at 37° C., Mueller-Hinton broth
Pseudomonas aeruginosa = assay: as above; assay type: cell-based; conditions: for MIC: Pseudomonas aeruginosa, 20-72 hours at 37° C., Nutrient Broth
Klebsiella pneumoniae = assay: as above; assay type: cell-based
Escherichia coli = assay: In vitro antibacterial activity, MIC by broth dilution; assay type: cell-based; conditions: for MIC: Escherichia coli, 20-72 hours at 37° C., Nutrient Broth
[3] = test system: Staphylococcus aureus, Methicillin Resistant (MRSA); assay: as above; assay type: cell-based; conditions: for MIC: Staphylococcus aureus, MRSA, 20-72 hours at 37° C., Mueller-Hinton broth
[4] = test system: 60 human tumor cell lines; assay: NCI in vitro tumor cell growth inhibition, whole panel; assay type: cell-based
RPMI-8226 (leukemia) = assay: NCI in vitro tumor cell growth inhibition (GI50); assay type: cell-based; conditions: Homo sapiens
CAKI-1 (renal cancer) = assay: NCI in vitro tumor cell growth inhibition (GI50); assay type: cell-based; conditions: Homo sapiens
UO-31 (renal cancer) = assay: NCI in vitro tumor cell growth inhibition (GI50); assay type: cell-based; conditions: Homo sapiens
SK-OV-5 (ovarian cancer) = assay: NCI in vitro tumor cell growth inhibition (GI50); assay type: cell-based; conditions: Homo sapiens
[5] = test system: NCI-H226 (non-small cell lung cancer); assay: NCI in vitro tumor cell growth inhibition (GI50); assay type: cell-based; conditions: Homo sapiens
[6] = test system: EKVX (non-small cell lung cancer); assay: NCI in vitro tumor cell growth inhibition (GI50); assay type: cell-based; conditions: Homo sapiens
SK-OV-3 (ovarian cancer) = assay: NCI in vitro tumor cell growth inhibition (GI50); assay type: cell-based; conditions: Homo sapiens
SK-OV-4 (ovarian cancer) = assay: NCI in vitro tumor cell growth inhibition (GI50); assay type: cell-based; conditions: Homo sapiens
HL-60 (TB) (leukemia) = assay: NCI in vitro tumor cell growth inhibition (GI50); assay type: cell-based; conditions: Homo sapiens
CCRF-CEM (leukemia) = assay: NCI in vitro tumor cell growth inhibition (GI50); assay type: cell-based; conditions: Homo sapiens
[7] = test system: HOP-62 (non-small cell lung cancer); assay: NCI in vitro tumor cell growth inhibition (GI50); assay type: cell-based; conditions: Homo sapiens
[8] = 20-72 hours at 37° C., Nutrient Broth
[9] = Gentamicin, footnote b: MIC in μg/ml

Molecule: CCn1cc(C(=O)O)c(=O)c2cc(F)c(N3CCN(CC(=O)c4ccccc4)CC3)c(F)c21 [Exp. 4, 1-Ethyl-6,8-difluoro-1,4-dihydro-4-oxo-7-(4-phenacyl-1-piperazinyl)-quinoline-3-carboxylic acid]
- MIC (Mycobacterium ranae): 3.43 µM (≈ 1.56 µg/mL)
- MIC [1]: 13.7 µM (≈ 6.24 µg/mL)
- MIC [2]: 13.7 µM (≈ 6.24 µg/mL)
- MIC (Proteus vulgaris): 0.22 µM (≈ 0.1 µg/mL)
- MIC (Pseudomonas aeruginosa): 0.86 µM (≈ 0.392 µg/mL)
- MIC, Kp (Klebsiella pneumoniae; [8]): 0.055 µM
- melting point: 167 °C (dec.)
- MIC (Escherichia coli): 0.22 µM (≈ 0.1 µg/mL)
- MIC [3]: 1.71 µM (≈ 0.779 µg/mL)

Molecule: CCn1cc(C(=O)O)c(=O)c2cc(F)c(N3CCN(CC(=NO)c4ccccc4)CC3)cc21 [Exp. 3, 1-Ethyl-6-fluoro-4-oxo-7-[4-(2-hydroxyimino-2-phenylethyl)-1-piperazinyl]-1,4-dihydroquinoline-3-carboxylic acid]
- MIC (Mycobacterium ranae): 55.3 µM (≈ 25 µg/mL)
- MIC (Proteus vulgaris): 3.45 µM (≈ 1.56 µg/mL)
- MIC (Pseudomonas aeruginosa): 13.8 µM (≈ 6.24 µg/mL)
- MIC, Kp (Klebsiella pneumoniae; [8]): 0.22 µM
- melting point: 203 °C (dec.)
- MIC (Escherichia coli): 0.86 µM (≈ 0.389 µg/mL)
- MIC [3]: 0.44 µM (≈ 0.199 µg/mL)

Molecule: CCn1cc(C(=O)O)c(=O)c2cc(F)c(N3CCN(CC(C)=NO)CC3)cc21 [Exp. 2, 1-Ethyl-6-fluoro-7-[4-(2-hydroxyiminopropyl)-1-piperazinyl]-4-oxo-1,4-dihydroquinoline-3-carboxylic acid]
- MIC (Mycobacterium ranae): 32.1 µM (≈ 12.5 µg/mL)
- MIC (Proteus vulgaris): 2 µM (≈ 0.781 µg/mL)
- MIC (Pseudomonas aeruginosa): 16 µM (≈ 6.25 µg/mL)
- MIC, Kp (Klebsiella pneumoniae; [8]): 0.13 µM
- melting point: 218 °C (dec.)
- MIC (Escherichia coli): 0.51 µM (≈ 0.199 µg/mL)
- MIC [3]: 0.51 µM (≈ 0.199 µg/mL)

Molecule: CCn1cc(C(=O)O)c(=O)c2cc(F)c(N3CCN(C(=N)C(O)c4ccc(F)cc4)CC3)c(F)c21 (stereo not drawn) [Exp. 11, 1-Ethyl-6,8-difluoro-7-{4-[2-(4-fluorophenyl)-2-hydroxy-iminoethyl]-1-piperazinyl}-4-oxo-1,4-dihydro-3-quinolinecarboxylic acid]
- melting point: 201 °C (dec.)

Molecule: CCn1cc(C(=O)O)c(=O)c2cc(F)c(N3CCN(CC(=NO)c4ccc(OC)cc4)CC3)c(F)c21 [Exp. 6, 1-Ethyl-6,8-difluoro-7-{4-[2-hydroxyimino-2-(4-methoxy-phenyl)ethyl]-1-piperazinyl}-4-oxo-1,4-dihydroquinoline-3-carboxylic acid]
- MIC (Mycobacterium ranae): 6.34 µM (≈ 3.17 µg/mL)
- MIC [1]: 6.34 µM (≈ 3.17 µg/mL)
- MIC [2]: 3.16 µM (≈ 1.58 µg/mL)
- MIC (Proteus vulgaris): 0.4 µM (≈ 0.2 µg/mL)
- MIC (Pseudomonas aeruginosa): 3.16 µM (≈ 1.58 µg/mL)
- MIC, Kp (Klebsiella pneumoniae; [8]): 0.10 µM
- melting point: 176 °C (dec.)
- MIC (Escherichia coli): 0.4 µM (≈ 0.2 µg/mL)
- MIC [3]: 0.2 µM (≈ 0.1 µg/mL)

Molecule: CCn1cc(C(=O)O)c(=O)c2cc(F)c(N3CCN(CC(=NO)c4ccc(OC)cc4)CC3)cc21 [Exp. 5, 1-Ethyl-6-fluoro-7-{4-[2-hydroxyimino-2-(4-methoxyphenyl)-ethyl]-1-piperazinyl}-4-oxo-1,4-dihydroquinoline-3-carboxylic acid]
- GI50 ([4]; Homo sapiens, Mean values over 60 cell lines tested): 31.8 µM
- Range ([4]; Ratio of GI50 value for the least sensitive cell to the most sensitive cell): 182
- MIC (Mycobacterium ranae): 104 µM (≈ 50.2 µg/mL)
- MIC [1]: 13 µM (≈ 6.26 µg/mL)
- GI50 (RPMI-8226 (leukemia)): 38.4 µM
- MIC [2]: 3.24 µM (≈ 1.56 µg/mL)
- MIC (Proteus vulgaris): 3.24 µM (≈ 1.56 µg/mL)
- GI50 (CAKI-1 (renal cancer)): 6.91 µM
- GI50 (UO-31 (renal cancer)): 0.55 µM
- GI50 (SK-OV-5 (ovarian cancer)): > 100 µM
- GI50 [5]: 93.3 µM
- GI50 [6]: 46.8 µM
- MIC (Pseudomonas aeruginosa): 25.9 µM (≈ 12.5 µg/mL)
- GI50 (SK-OV-3 (ovarian cancer)): 37.2 µM
- MIC, Kp (Klebsiella pneumoniae; [8]): 0.027 µM
- GI50 (SK-OV-4 (ovarian cancer)): 55.1 µM
- melting point: 221 °C (dec.)
- GI50 (HL-60 (TB) (leukemia)): 17.7 µM
- MIC (Escherichia coli): 1.62 µM (≈ 0.782 µg/mL)
- GI50 (CCRF-CEM (leukemia)): 24.4 µM
- MIC [3]: 0.41 µM (≈ 0.198 µg/mL)
- GI50 [7]: 52.3 µM

Molecule: COc1ccc(C(CN2CCN(c3cc4c(cc3F)c(=O)c(C(=O)O)cn4-c3ccc([N+](=O)[O-])cc3F)CC2)=NO)cc1 [Exp. 8, 1-(4-Nitro-2-fluorophenyl)-6-fluoro-7-{4-[2-hydroxyimino-2-(4-methoxyphenyl)ethyl]-1-piperazinyl}-4-oxo-1,4-dihydroquinoline-3-carboxylic acid]
- MIC (Mycobacterium ranae): 21.1 µM (≈ 12.5 µg/mL)
- MIC [1]: 1.32 µM (≈ 0.783 µg/mL)
- MIC [2]: 5.28 µM (≈ 3.13 µg/mL)
- MIC (Proteus vulgaris): > 169 µM
- MIC (Pseudomonas aeruginosa): 42.2 µM (≈ 25 µg/mL)
- MIC, Kp (Klebsiella pneumoniae; [8]): 0.08 µM
- MIC (Escherichia coli): 1.32 µM (≈ 0.783 µg/mL)
- MIC [3]: 0.34 µM (≈ 0.202 µg/mL)

Molecule: Gentamicin [reference compound]
- MIC, Mr (Mycobacterium ranae; [9]): 0.20 µg/mL
- MIC, SpEAR [1, 9]: 100 µg/mL
- MIC, EfVRE [2, 9]: 50 µg/mL
- MIC, Pv (Proteus vulgaris; [9]): 0.1 µg/mL
- MIC, Pa (Pseudomonas aeruginosa; [9]): 0.39 µg/mL
- MIC, Kp (Klebsiella pneumoniae; [9]): 0.2 µg/mL
- MIC, Ec (Escherichia coli; [9]): 0.20 µg/mL
- MIC, MRSA [3, 9]: 0.78 µg/mL

Molecule: CCn1cc(C(=O)O)c(=O)c2cc(F)c(N3CCN(CC(=NOC)c4ccc(OC)cc4)CC3)cc21 [Exp. 7, 1-Ethyl-6-fluoro-7-{4-[2-methoxyimino-2-(4-methoxyphenyl)-ethyl]-1-piperazinyl}-4-oxo-1,4-dihydroquinoline-3-carboxylic acid]
- MIC (Mycobacterium ranae): 202 µM (≈ 100 µg/mL)
- MIC [1]: 12.6 µM (≈ 6.26 µg/mL)
- MIC [2]: 12.6 µM (≈ 6.26 µg/mL)
- MIC (Proteus vulgaris): 6.31 µM (≈ 3.13 µg/mL)
- MIC (Pseudomonas aeruginosa): 202 µM (≈ 100 µg/mL)
- MIC, Kp (Klebsiella pneumoniae; [8]): 1.57 µM
- melting point: 165 °C (dec.)
- MIC (Escherichia coli): 6.31 µM (≈ 3.13 µg/mL)
- MIC [3]: 1.57 µM (≈ 0.78 µg/mL)

Molecule: COc1ccc(C(=O)CN2CCN(c3cc4c(cc3F)c(=O)c(C(=O)O)cn4-c3ccc(N)cc3F)CC2)cc1 [Exp. 12, 1-(4-amino-2-fluorophenyl)-6-fluoro-7-{4-[2-(4-methoxy-phenyl)-2-oxoethyl]-1-piperazinyl}-4-oxo-1,4-dihydroquinoline-3-carboxylic acid]
- MIC (Mycobacterium ranae): 18.2 µM (≈ 9.98 µg/mL)
- MIC [1]: 1.82 µM (≈ 0.998 µg/mL)
- MIC [2]: 5.47 µM (≈ 3 µg/mL)
- MIC (Proteus vulgaris): 18.2 µM (≈ 9.98 µg/mL)
- MIC (Pseudomonas aeruginosa): 5.74 µM (≈ 3.15 µg/mL)
- MIC, Kp (Klebsiella pneumoniae; [8]): 0.05 µM
- melting point: 143 °C (dec.)
- MIC (Escherichia coli): 0.55 µM (≈ 0.302 µg/mL)
- MIC [3]: 0.55 µM (≈ 0.302 µg/mL)

Molecule: CCn1cc(C(=O)O)c(=O)c2cc(F)c(N3CCNCC3)cc21 [Norfloxacin, reference compound]
- MIC (Mycobacterium ranae): 9.81 µM (≈ 3.13 µg/mL)
- MIC [1]: 19.6 µM (≈ 6.26 µg/mL)
- MIC [2]: 9.81 µM (≈ 3.13 µg/mL)
- MIC (Proteus vulgaris): 0.16 µM (≈ 0.0511 µg/mL)
- MIC (Pseudomonas aeruginosa): 1.22 µM (≈ 0.39 µg/mL)
- MIC, Kp (Klebsiella pneumoniae; [8]): 0.041 µM
- MIC (Escherichia coli): 0.63 µM (≈ 0.201 µg/mL)
- MIC [3]: 4.89 µM (≈ 1.56 µg/mL)

Molecule: CC1COc2c(N3CCN(C)CC3)c(F)cc3c(=O)c(C(=O)O)cn1c23 (stereo not drawn) [Ofloxacin, reference compound]
- MIC (Mycobacterium ranae): 1.08 µM (≈ 0.39 µg/mL)
- MIC [1]: 4.32 µM (≈ 1.56 µg/mL)
- MIC [2]: 4.32 µM (≈ 1.56 µg/mL)
- MIC (Proteus vulgaris): 0.069 µM (≈ 0.0249 µg/mL)
- MIC (Pseudomonas aeruginosa): 2.16 µM (≈ 0.781 µg/mL)
- MIC, Kp (Klebsiella pneumoniae; [8]): 0.036 µM
- MIC (Escherichia coli): 0.28 µM (≈ 0.101 µg/mL)
- MIC [3]: 1.08 µM (≈ 0.39 µg/mL)

Molecule: CCn1cc(C(=O)O)c(=O)c2cc(F)c(N3CCN(CC(C)NN)CC3)cc21 (stereo not drawn) [Exp. 1, 1-Ethyl-6-fluoro-7-[4-(2-hydrazinopropyl)-1-piperazinyl]-4-oxo-1,4-dihydroquinoline-3-carboxylic acid]
- MIC (Mycobacterium ranae): 16.1 µM (≈ 6.3 µg/mL)
- MIC [1]: 32.1 µM (≈ 12.6 µg/mL)
- MIC [2]: 16.1 µM (≈ 6.3 µg/mL)
- MIC (Proteus vulgaris): 2.01 µM (≈ 0.787 µg/mL)
- MIC (Pseudomonas aeruginosa): 16.1 µM (≈ 6.3 µg/mL)
- MIC, Kp (Klebsiella pneumoniae; [8]): 0.064 µM
- melting point: 208 °C (dec.)
- MIC (Escherichia coli): 2.01 µM (≈ 0.787 µg/mL)
- MIC [3]: 4.01 µM (≈ 1.57 µg/mL)
